Test results taken from patent publication US10813888B2, “Formulations of cysteamine and cysteamine derivatives” (RECORDATI INDUSTRIA CHIMICA E FARMACEUTICA SPA, priority 2016, dated 2020).

Experiment: In vitro dissolution test, USP Apparatus II at pH 1.2 for 1 hour
Assay type: physicochemical
Protocol: The in vitro dissolution tests were conducted in an USP Apparatus II at pH 1.2 for 1 hour. The cysteamine bitartrate raw material was completely dissolved in 10 minutes.

## NCCS.O=C(O)C(O)C(O)C(=O)O (stereo not shown) [cysteamine bitartrate raw material, cysteamine bitartrate]
  time to complete dissolution: 10 min
